Source: article PMC12292233, “Effects of 2-Hydroxypropyl-β-Cyclodextrin on the Antioxidant Efficiency of Some Gallic Acid Derivatives in Soybean Oil-in-Water Emulsions” (Antioxidants, 2025)

Key:
[1] = Kinetics of lipid oxidation (conjugated dienes, AOCS Ti 1a 64) in soybean oil-in-water emulsions; conditions: T = 60 °C; for relative efficiency order in inhibiting lipid peroxidation: 1:9 O/W emulsion, time to 0.5% increase in conjugated dienes; for relative efficiency order in inhibiting lipid peroxidation / effect of addition of HPCD on oxidative stability of the emulsion loaded with the antioxidant: ΦI = 0.008, [AO] = 0.1 mM
Description: The 1:9 oil-in-water emulsions were prepared by mixing 1 mL of stripped soybean oil and 9 mL of buffered aqueous solution (citric–citrate buffer 0.04 M pH 3.0) and different amounts of the surfactant Tween 20 (ΦI = Vsurfactant/Vemulsion = 0.005 − 0.04). Emulsions prepared without antioxidants were used as controls. In the others, the antioxidants GA, PG, OG, and LG were added to the aqueous (GA, PG) or oil (OG, LG) phases. The mixtures were stirred for at least 60 s at 20000 rpm at room temperature by employing a high-speed rotor (Polytron PT 1600 E, Kinematica, Fisher Scientific S.L., Madrid, Spain). All emulsions were prepared in triplicate and reported values are average.
The kinetics of the lipid peroxidation of soybean oil-in-water emulsions were monitored by determining the variation in the formation of conjugated dienes (CDs) with time according to the AOCS Official Method Ti 1a 64 in both the absence (control) and the presence of antioxidants (stoichiometric [AO] = 10^−4 M). Briefly, 1:9 O/W emulsions (ΦI = 0.008) were transferred to 25 mL screw-capped erlenmeyer flasks and were placed in an orbital shaker (Incubator Heidolph 1000 orbital stirrer, Heidolph Scientific Products GmbH, Schwabach, Germany) equipped with a Heidolph thermostat 1010 to the control temperature at 148 rpm and T = 60 °C (±1 °C) in the dark.
Aliquots (25 µL) of the emulsions were removed periodically and diluted to 10 mL with 2-propanol, and the absorbance was measured at λ = 233 nm. The percentage of conjugated dienes (%CD) was determined, as described in the literature, by employing Equation (18), where Coil stands for the concentration of soybean oil in the total volume of the emulsion (density for soybean oil = 0.93 g/mL; T = 25 °C).(18) %CD=1.0769A233nm/Coil(g/L)
The relative efficiency of the antioxidants under the different experimental conditions was quantified by measuring the time needed to increase the CD content by 0.5% (dashed line in Figure 7). We have previously shown that these values are equal to those for the induction period determined from the intersection point of the two linear segments defining the inhibited and uninhibited (propagation) steps [28].

[2] = Distribution of antioxidants in intact soybean oil-in-water emulsions (16-ArN2+ chemical probe, pseudophase kinetic model); format: physicochemical; conditions: for PO^I, partition constant oil-interfacial / PW^I, partition constant water-interfacial / PW^I (app), partition constant water-interfacial: soybean oil-in-water emulsion, Tween 20, T = 25.0 °C; for order of percentage of AO in the interfacial region: at any particular ΦI value
Description: Emulsions contain three regions (oil, interface, and aqueous) with distinct solvent properties, and antioxidants are partitioned between them to different extents depending on their hydrophobicity (Figure 4). To prevent disturbance of the existing equilibria, the partition constants were evaluated in the intact emulsions using a well-established chemical method based on the reaction between a chemical probe, 4-hexadecylbenzenediazonium (16-ArN2^+), and the antioxidants. Kinetic results are then analyzed using a pseudophase kinetic model.
The method, along with its assumptions, advantages, and limitations, are described in detail elsewhere; only the relevant parts will be summarized here. 16-ArN2^+ is specifically designed as a water-insoluble chemical probe due to its long hydrophobic tail but with an ionic head group that makes it oil-insoluble. Thus, the reactive (-N2^+) group is located exclusively in the interfacial region. The rate of its reaction with the antioxidant depends on the effective concentration of the antioxidant in that region, which, in turn, depends on its distribution (Figure 4). The partition constants of the antioxidant between the water interfacial (PW^I) and the oil interfacial (PO^I) regions are described by Equations (10) and (11), respectively, where the magnitudes within parenthesis indicate the local concentrations given in moles per liter for a specific region.(10) PWI=(AOI)/(AOW) (11) POI=(AOI)/(AOO)
By employing the formalism of the pseudophase kinetic model, mathematical equations describing the relationships between the measured rate constant (kobs) for the reaction involving 16-ArN2^+ and the AOs and the partition constants can be derived, as was shown in our previous published work. Equation (12) was employed for the AOs, which are distributed between the three regions. Equation (12) can be simplified to Equation (13) for those antioxidants that only partition between the oil and the interfacial regions.(12) kobs=AOTkIPWIPOI/ΦOPWI+ΦIPWIPOI+ΦWPOI (13) kobs=kIAOTPOI/ΦIPOI+ΦO
With the partition constants known, the percentage of AOs at the interface can be determined, and the effective concentration of AOs in each region can be determined straightforwardly by employing Equations (14)–(16).(14) %AOI=100ΦIPWIPOI/ΦOPWI+ΦIPWIPOI+ΦWPOI (15) %AOI=100ΦIPOI/ΦIPOI+ΦO (16) (AOI)=%AOIAOT/ΦI
The application of the pseudophase kinetic model described above requires the determination of the variation in the observed rate constant (kobs) for the reaction between the chemical probe (16ArN2^+) and the antioxidants with the surfactant concentration. Because emulsions are opaque, a special protocol based on a derivatization method has been used to determine the kobs values. Briefly, unreacted arenediazonium ions were rapidly quenched by employing a suitable coupling agent (N-(1-naphthyl)ethylenediammine, NED), leading to the formation of a stable azo dye (Figure 5). The absorbance of the azo dye formed is proportional to the concentration of the unreacted 16ArN2^+ present in the reaction mixture. Further information regarding the experimental procedure is provided in a previous publication.
The kobs values were determined by fitting the absorbance–time data pairs to the pseudo-first-order kinetic equation (Equation (17), where At, A∞, and A0 stand for the absorbance values at time t, infinitive time, and zero time, respectively).(17) lnAt−A∞=lnA0−A∞−kobst
The distribution of the antioxidants in the intact emulsions was assessed through the analysis of the variation in the observed rate constants (kobs) for the reaction between the chemical probe 16-ArN2^+ and the AOs with the emulsifier volume fraction ΦI (Figure 9). Details of this method can be found elsewhere. For all AOs, kobs values decrease asymptotically 3–6 times upon increasing ΦI from ΦI = 0.005 to ΦI = 0.039. […]

[3] = Partition constant in soybean oil-water binary mixtures; format: physicochemical; conditions: T = 25.0 °C
Description: Table 2 Partition constants values in soybean oil–water binary mixtures (PW^O) and in soybean oil-in-water emulsions (PW^I and PO^I) for gallates in the absence and the presence of HP-CD; T = 25.0 °C.

[4] = DPPH radical scavenging activity of gallates in absence and presence of HPCD; format: biochemical; conditions: values given as 10^6 × EC50, T = 25 ± 1 °C, reaction time 3600 s, aqueous citric acid/citrate (0.04 M, pH 3)-methanol 50:50 v/v
Description: The radical scavenging activity of gallates was obtained by employing the free radical 2,2-diphenyl-1-pycrilhydrazyl DPPH^• and by following the method described by García-Perez et al.. The absorbance decrease in DPPH^• (λ= 515 nm) was monitored in the absence and the presence of CD for different concentrations of AOs ([AO] = […]) in an aqueous–methanolic solution (5:5, v/v) at T = 25 °C. […] The radical scavenging activity was measured in terms of the EC50 values, defined as the gallate concentration required to decrease DPPH^• radicals by half.

[5] = Water solubility (statement); format: physicochemical
[6] = parameters: method as in PMID 34037013, PMID 25180889, PMID 28248497; conditions: based on oxygen uptake; ratio oleic:linoleic:linolenic; ref [25],[26],[27]; cited from earlier work

Row | PO^I, partition constant oil-interfacial ([2]; [HPCD] = 0) | PO^I, partition constant oil-interfacial ([2]; [HPCD] = 0.013 M) | order of percentage of AO in the interfacial region [2] | EC50 ([4]; 0 M HPCD) [µM] | EC50 ([4]; 1.1·10^−2 M HPCD) [µM] | Molecule | relative efficiency order in inhibiting lipid peroxidation [1] | effect of addition of HPCD on oxidative stability of the emulsion loaded with the antioxidant ([1]; [HP-CD] = 0.013 M) | relative oxidation rate [6] | further results
1 |  |  |  |  |  | 2-Hydroxypropyl-β-cyclodextrin [HPCD] |  |  |  | effect on the kinetics of oxidation in absence of antioxidants ([1]; 1:9 soybean emulsions without antioxidant, [HP-CD] = 0.013 M): no effect
2 | 238 ± 8 | 174 ± 9 | %BGI > %PGI > %LGI ≈ %OGI | 6.02 ± 0.03 | 5.35 ± 0.04 | CCCCOC(=O)c1cc(O)c(O)c(O)c1 [BG, butyl gallate] | LG ≈ OG < PG < < BG | decreases the oxidative stability slightly |  | PW^I, partition constant water-interfacial ([2]; [HPCD] = 0): 772 ± 33; PW^I (app), partition constant water-interfacial ([2]; [HPCD] = 0.013 M): 565 ± 9; relative efficiency order in inhibiting lipid peroxidation ([1]; listed as butyl gallate): highest antioxidant efficiency; PW^O, partition constant [3]: 3.25 ± 0.03
3 |  |  |  | 8.36 ± 0.28 | 7.84 ± 0.08 | O=C(O)c1cc(O)c(O)c(O)c1 [GA, gallic acid] |  |  |  | 
4 | 27 ± 9 | 25 ± 2 | %BGI > %PGI > %LGI ≈ %OGI |  |  | CCCCCCCCCCCCOC(=O)c1cc(O)c(O)c(O)c1 [LG, lauryl gallate] | LG ≈ OG < PG < < BG | negligible effect |  | solubility in water [5]: water insoluble
5 | 26 ± 7 | 25 ± 5 | %BGI > %PGI > %LGI ≈ %OGI | 9.02 ± 1.05 | 8.27 ± 0.2 | CCCCCCCCOC(=O)c1cc(O)c(O)c(O)c1 [OG, octyl gallate] | LG ≈ OG < PG < < BG | negligible effect |  | solubility in water [5]: water insoluble
6 | 450 ± 26 | 371 ± 15 | %BGI > %PGI > %LGI ≈ %OGI | 6.09 ± 0.12 | 5.57 ± 0.01 | CCCOC(=O)c1cc(O)c(O)c(O)c1 [PG, Propyl gallate] | LG ≈ OG < PG < < BG | decreases the oxidative stability slightly |  | PW^I, partition constant water-interfacial ([2]; [HPCD] = 0): 382 ± 18; PW^I (app), partition constant water-interfacial ([2]; [HPCD] = 0.013 M): 315 ± 14; PW^O, partition constant [3]: 0.85 ± 0.01
7 |  |  |  |  |  | CCCCC/C=C\C/C=C\CCCCCCCC(=O)O [linoleic, linoleic acid] |  |  | ~70 | 
8 |  |  |  |  |  | CC/C=C\C/C=C\C/C=C\CCCCCCCC(=O)O [linolenic, linolenic acid] |  |  | ~100 | 
9 |  |  |  |  |  | CCCCCCCC/C=C\CCCCCCCC(=O)O [oleic, oleic acid] |  |  | approximately 1 | 
